Structures are written as SMILES. Bounds are passed on as bounds.

By IC50 is commonly meant the concentration that inhibits the measured activity by half.

Chain of WT EZH2 (EZH2 4 protein complex: EZH2, EED, SUZ12, RbAp48) (Q15910 whole entry): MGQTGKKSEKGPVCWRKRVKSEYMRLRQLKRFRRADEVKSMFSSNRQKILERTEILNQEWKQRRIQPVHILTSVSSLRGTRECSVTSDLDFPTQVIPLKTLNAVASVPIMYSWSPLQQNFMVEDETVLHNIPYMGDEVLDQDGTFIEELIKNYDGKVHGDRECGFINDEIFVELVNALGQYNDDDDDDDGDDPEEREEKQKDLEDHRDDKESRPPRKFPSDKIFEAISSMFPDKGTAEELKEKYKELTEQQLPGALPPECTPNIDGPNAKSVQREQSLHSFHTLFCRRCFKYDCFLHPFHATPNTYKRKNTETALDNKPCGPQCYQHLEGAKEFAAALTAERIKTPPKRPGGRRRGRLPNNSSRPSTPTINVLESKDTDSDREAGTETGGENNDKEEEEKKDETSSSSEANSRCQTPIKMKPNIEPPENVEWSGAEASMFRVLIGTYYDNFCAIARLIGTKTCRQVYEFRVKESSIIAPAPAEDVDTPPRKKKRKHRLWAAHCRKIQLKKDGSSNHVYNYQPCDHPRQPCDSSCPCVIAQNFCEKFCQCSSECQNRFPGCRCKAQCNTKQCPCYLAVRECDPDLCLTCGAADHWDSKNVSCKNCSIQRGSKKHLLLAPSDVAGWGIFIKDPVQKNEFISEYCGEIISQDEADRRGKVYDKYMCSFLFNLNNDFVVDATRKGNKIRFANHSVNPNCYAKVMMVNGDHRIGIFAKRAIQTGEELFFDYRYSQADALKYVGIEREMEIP
Chain of WT EZH2 (EZH2 4 protein complex: EZH2, EED, SUZ12, RbAp48) (O75530 whole entry partner): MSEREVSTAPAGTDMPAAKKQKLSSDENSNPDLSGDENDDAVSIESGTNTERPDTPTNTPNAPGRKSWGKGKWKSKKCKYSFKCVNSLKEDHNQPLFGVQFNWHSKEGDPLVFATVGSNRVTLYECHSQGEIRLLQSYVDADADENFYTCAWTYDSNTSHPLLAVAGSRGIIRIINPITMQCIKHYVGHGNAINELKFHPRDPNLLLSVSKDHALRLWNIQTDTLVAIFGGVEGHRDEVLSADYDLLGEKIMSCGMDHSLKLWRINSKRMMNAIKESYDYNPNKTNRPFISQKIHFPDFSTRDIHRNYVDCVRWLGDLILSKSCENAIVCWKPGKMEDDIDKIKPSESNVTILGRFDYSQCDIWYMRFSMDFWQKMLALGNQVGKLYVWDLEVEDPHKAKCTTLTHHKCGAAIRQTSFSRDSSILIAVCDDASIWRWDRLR
Chain of WT EZH2 (EZH2 4 protein complex: EZH2, EED, SUZ12, RbAp48) (Q15022 whole entry partner): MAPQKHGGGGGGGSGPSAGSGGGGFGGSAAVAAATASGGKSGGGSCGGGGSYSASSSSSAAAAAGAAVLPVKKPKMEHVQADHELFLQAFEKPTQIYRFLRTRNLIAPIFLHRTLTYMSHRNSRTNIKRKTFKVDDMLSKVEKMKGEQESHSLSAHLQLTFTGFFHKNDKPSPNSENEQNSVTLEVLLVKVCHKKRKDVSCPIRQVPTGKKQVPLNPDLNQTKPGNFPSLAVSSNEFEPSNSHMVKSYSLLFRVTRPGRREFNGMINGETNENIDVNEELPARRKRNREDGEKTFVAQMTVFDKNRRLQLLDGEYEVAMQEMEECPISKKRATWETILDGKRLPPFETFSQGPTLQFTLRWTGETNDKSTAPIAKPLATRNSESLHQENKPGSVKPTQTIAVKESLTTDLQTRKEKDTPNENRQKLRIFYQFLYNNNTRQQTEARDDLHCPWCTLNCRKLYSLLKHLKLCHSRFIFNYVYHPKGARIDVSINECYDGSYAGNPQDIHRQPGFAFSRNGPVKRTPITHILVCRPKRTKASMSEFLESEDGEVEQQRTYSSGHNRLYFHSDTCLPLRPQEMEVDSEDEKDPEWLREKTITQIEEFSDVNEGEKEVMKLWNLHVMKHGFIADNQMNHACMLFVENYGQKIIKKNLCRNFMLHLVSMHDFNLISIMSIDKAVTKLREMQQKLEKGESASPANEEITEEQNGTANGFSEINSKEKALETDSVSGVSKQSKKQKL
Chain of WT EZH2 (EZH2 4 protein complex: EZH2, EED, SUZ12, RbAp48) (Q09028 whole entry partner): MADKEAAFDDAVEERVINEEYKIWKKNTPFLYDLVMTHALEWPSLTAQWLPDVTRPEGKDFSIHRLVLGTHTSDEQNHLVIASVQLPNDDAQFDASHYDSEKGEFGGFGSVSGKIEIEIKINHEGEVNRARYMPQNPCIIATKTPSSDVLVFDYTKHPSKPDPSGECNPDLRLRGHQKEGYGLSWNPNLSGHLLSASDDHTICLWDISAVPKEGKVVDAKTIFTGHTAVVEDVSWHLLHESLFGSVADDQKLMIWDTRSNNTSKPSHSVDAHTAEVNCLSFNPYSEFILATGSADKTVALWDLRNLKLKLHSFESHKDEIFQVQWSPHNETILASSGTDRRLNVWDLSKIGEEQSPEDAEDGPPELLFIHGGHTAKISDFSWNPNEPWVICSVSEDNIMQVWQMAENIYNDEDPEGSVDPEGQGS

In the test the target is WT EZH2 (EZH2 4 protein complex: EZH2, EED, SUZ12, RbAp48) (Homo sapiens, UniProt O75530+Q09028+Q15022+Q15910). Briefly: WT EZH2 nucleosome assay. It is filed as biochemical. To be noted: nucleosome assay, 5 nM EZH2 4-protein complex, 1.5 μM SAM; read-out: WT EZH2 IC50. The essentials:
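Radiometric methyltransferase assay: 5 nM EZH2 four-protein complex, 1.5 μM 3H-SAM, 25 μg/mL HeLa oligonucleosomes, 50 nM recombinant H1 in 100 mM Tris pH 8.5, 4 mM DTT, 0.01% Tween-20. 60 min reaction, TCA quench, filter capture, scintillation counting; IC50 from 11-point 4-parameter fit; % effect at 20 μM.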
`Cc1cc(C)c(CNC(=O)c2ncnc(N3CCC[C@@H]3C#N)c2C)c(=O)[nH]1` [Example 116, 6-[(2R)-2-cyanopyrrolidin-1-yl]-N-[(4,6-dimethyl-2-oxo-1,2-dihydropyridin-3-yl)methyl]-5-methyl-pyrimidine-4-carboxamide]: the IC50 came out at 29.2 µM. In the case of `Cc1cc(C)c(CNC(=O)c2nc(C3CC3)nc(-c3ccnn3C)c2C)c(=O)[nH]1` [Example 94, 2-cyclopropyl-N-[(4,6-dimethyl-2-oxo-1,2-dihydropyridin-3-yl)methyl]-5-methyl-6-(1-methyl-1H-pyrazol-5-yl)pyrimidine-4-carboxamide], the IC50 is 16 µM. Then `Cc1cc(C)c(CNC(=O)c2nc(N3CCOCC3)nc(N3CCC[C@@H]3C)c2C)c(=O)[nH]1` [Example 81, N-[(4,6-dimethyl-2-oxo-1,2-dihydropyridin-3-yl)methyl]-5-methyl-6-[(2S)-2-methylpyrroli-din-1-yl]-2-morpholin-4-ylpyrimidine-4-carboxamide], with 7.74 µM; and `Cc1cc(C)c(CNC(=O)c2nccc(-c3ccnn3C)c2C)c(=O)[nH]1` [Example 110, N-[(4,6-dimethyl-2-oxo-1,2-dihydropyridin-3-yl)methyl]-3-methyl-4-(1-methyl-1H-pyrazol-5-yl)pyridine-2-carboxamide], with 23.2 µM. Next, `CSc1nc(C(=O)NCc2c(C)cc(C)[nH]c2=O)c(C)c(-c2ccnn2C)n1` [Example 72, N-[(4,6-dimethyl-2-oxo-1,2-dihydropyridin-3-yl)methyl]-5-methyl-6-(1-methyl-1H-pyrazol-5-yl)-2-(methylthio) pyrimidine-4-carboxamide]: 6.37 µM. Consider `Cc1cc(C(F)(F)F)c(CNC(=O)c2cccc(-c3ccnn3C)c2Cl)c(=O)[nH]1` [Example 121, 2-chloro-N-{[6-methyl-2-oxo-4-(trifluoromethyl)-1,2-dihydropyridin-3-yl]methyl}-3-(1-methyl-1H-pyrazol-5-yl)benzamide], for which the IC50 came to 42.1 µM. Then `Cc1cc(C)c(CNC(=O)c2ncnc(N3CCCC3C3CC3)c2C)c(=O)[nH]1` (stereo not drawn) [Example 122, 6-(2-cyclopropyl-pyrrolidin-1-yl)-N-[(4,6-dimethyl-2-oxo-1,2-dihydropyridin-3-yl)methyl]-5-methylpyrimidine-4-carboxamide], with 43.6 µM; and `Cc1cc(C)c(CNC(=O)c2nc(N(C)C)nc(N3CCC[C@@H]3C)c2C)c(=O)[nH]1` [Example 96, 2-(dimethylamino)-N-[(4,6-dimethyl-2-oxo-1,2-dihydropyridin-3-yl)methyl]-5-methyl-6-[(2S)-2-methyplyrrolidin-1-yl]pyrimidine-4-carboxamide], with 16.5 µM; and `Cc1cc(C)c(CNC(=O)c2ncnc(N3CCCC3C(F)(F)F)c2C)c(=O)[nH]1` (stereo not drawn) [Example 53, N-[(4,6-dimethyl-2-oxo-1,2-dihydropyridin-3-yl)methyl]-5-methyl-6-[2-(trifluoromethyl)pyrrolidin-1-yl]pyrimidine-4-carboxamide], with 2.52 µM. Take `Cc1cc(C)c(CNC(=O)c2nc(OC(C)C)nc(-c3ccnn3C)c2C)c(=O)[nH]1` [Example 100, N-[(4,6-dimethyl-2-oxo-1,2-dihydropyridin-3-yl)methyl]-2-isopropoxy-5-methyl-6-(1-methyl-1H-pyrazol-5-yl)pyrimidine-4-carboxamide]: the IC50 amounted to 17.6 µM. For the molecule `Cc1ccc(CNC(=O)c2nc(C3CC3)nc(-c3ccnn3C)c2C)c(=O)[nH]1` [Example 141, 2-cyclopropyl-5-methyl-N-[(6-methyl-2-oxo-1,2-dihydropyridin-3-yl)methyl]-6-(1-methyl-1H-pyrazol-5-yl)pyrimidine-4-carboxamide], the IC50 was over 200 µM. Next, `Cc1noc([C@H]2CCCN2c2ncnc(C(=O)NCc3c(C)cc(C)[nH]c3=O)c2C)n1` [Example 146, N-[(4,6-dimethyl-2-oxo-1,2-dihydropyridin-3-yl)methyl]-5-methyl-6-[(2R)-2-(3-methyl-1,2,4-oxadiazol-5-yl)pyrrolidin-1-yl]pyrimidine-4-carboxamide]: over 200 µM.

(Values after patent US20170152239A1, “BENZAMIDE AND HETEROBENZAMIDE COMPOUNDS” (PFIZER INC., priority 2012, published 2017).)
